Data: patent publication US20160002204A1 (Board of Regents, The University of Texas System, priority 2014, published 2016)

Assays:
[1] = target: T1, GLS1 (purified recombinant human GAC) (Homo sapiens, UniProt O94925); assay: GLS1 enzymatic activity assay (dual-coupled, Amplex UltraRed/resorufin); format: biochemical
T1 sequence (O94925 55-598 isoform O94925-3 limits assumed): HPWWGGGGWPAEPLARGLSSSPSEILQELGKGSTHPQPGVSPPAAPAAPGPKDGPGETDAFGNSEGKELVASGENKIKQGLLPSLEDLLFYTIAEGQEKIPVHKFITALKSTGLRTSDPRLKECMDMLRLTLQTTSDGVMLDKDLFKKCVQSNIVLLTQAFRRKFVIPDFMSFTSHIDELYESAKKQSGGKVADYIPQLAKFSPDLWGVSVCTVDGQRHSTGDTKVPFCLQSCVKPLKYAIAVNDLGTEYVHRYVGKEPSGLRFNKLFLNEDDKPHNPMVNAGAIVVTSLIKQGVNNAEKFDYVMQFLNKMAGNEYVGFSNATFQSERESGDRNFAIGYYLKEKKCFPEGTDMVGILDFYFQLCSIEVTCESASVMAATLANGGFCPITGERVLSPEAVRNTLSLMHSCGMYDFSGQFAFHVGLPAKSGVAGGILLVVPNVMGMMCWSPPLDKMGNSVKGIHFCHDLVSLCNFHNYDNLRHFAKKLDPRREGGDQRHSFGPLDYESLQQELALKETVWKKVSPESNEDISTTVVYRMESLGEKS
How it was run: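 Recombinant human GAC (2 nM) preincubated with 50 mM potassium phosphate, then inhibitor (10 min each, RT); 1 mM glutamine, pH 7.4 Hepes buffer, 1% DMSO. Glutamate coupled via glutamate oxidase/HRP to resorufin (Ex 530/Em 590), kinetic or 20-min endpoint; IC50 by four-parameter logistic fit.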

A549 cells = assay: A549 proliferation (viability) assay, Cell Titer Fluor, 72 hours; format: cell-based; conditions: Homo sapiens
How it was run: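 Compound exposure lasted 72 h (final DMSO 0.5% v/v) on A549 cells plated at 1000 cells/well one day earlier. Cell Titer Fluor added, 30 min at 37 °C, fluorescence read; EC50 derived by four-parameter logistic curve fitting.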

Row | SMILES | IC50 [1] | EC50 (A549 cells)
1 | O=C(CN1CCCC1)Nc1ccn(CCC(F)Cn2cc(C(=O)NCc3cccc(OC(F)(F)F)c3)nn2)c(=O)c1 (centres unmarked) [Example 270, 1-(2-fluoro-4-{2-oxo-4-[2-(pyrrolidin-1-yl)acetamido]-1,2-dihydropyridin-1-yl}butyl)-N-{[3-(trifluoromethoxy)phenyl]methyl}-1H-1,2,3-triazole-4-carboxamide] | 100 to 500 nM | 500 to 5000 nM
2 | C[C@@H](NC(=O)Nc1ccn(CCCCc2ccc(NC(=O)Cc3ccccc3)nn2)c(=O)n1)c1ccccc1 [Example 89, N-(6-{4-[2-oxo-4-({[(1R)-1-phenylethyl]carbamoyl}amino)-1,2-dihydropyrimidin-1-yl]butyl}pyridazin-3-yl)-2-phenylacetamide] | 100 to 500 nM | > 5000 nM
3 | CNC1CCC(CC(=O)Nc2ccn(CCCCn3cc(C(=O)NCc4cccc(OC(F)(F)F)c4)nn3)c(=O)c2)CC1 (centres unmarked) [Example 209, 1-[4-(4-{2-[4-(methylamino)cyclohexyl]acetamido}-2-oxo-1,2-dihydropyridin-1-yl)butyl]-N-{[3-(trifluoromethoxy)phenyl]methyl}-1H-1,2,3-triazole-4-carboxamide] | < 100 nM | 500 to 5000 nM
4 | NC(=O)CNC(=O)c1cn(CCCCn2ccc(NC(=O)Cc3cccc(OC(F)(F)F)c3)cc2=O)nn1 [Example 136, 2-({1-[4-(2-oxo-4-{2-[3-(trifluoromethoxy)phenyl]acetamido}-1,2-dihydropyridin-1-yl)butyl]-1H-1,2,3-triazol-4-yl}formamido)acetamide] | 100 to 500 nM | > 5000 nM
5 | Cc1ccc(CNC(=O)c2cn(CC(F)CCn3ccc(NC(=O)CC4CCOCC4)cc3=O)nn2)cn1 (centres unmarked) [Example 197, 1-(2-fluoro-4-{4-[2-(oxan-4-yl)acetamido]-2-oxo-1,2-dihydropyridin-1-yl}butyl)-N-[(6-methylpyridin-3-yl)methyl]-1H-1,2,3-triazole-4-carboxamide] | < 100 nM | 500 to 5000 nM
6 | O=C(CC1CCCCC1)Nc1ccn(CCC(F)Cn2cc(C(=O)NCc3cccc(OC(F)(F)F)c3)nn2)c(=O)c1F (centres unmarked) [Example 212, 1-{4-[4-(2-cyclohexylacetamido)-3-fluoro-2-oxo-1,2-dihydropyridin-1-yl]-2-fluorobutyl}-N-{[3-(trifluoromethoxy)phenyl]methyl}-1H-1,2,3-triazole-4-carboxamide] | < 100 nM | < 100 nM
7 | CO[C@@H](C(=O)Nc1ccn(CCC(F)Cn2cc(C(=O)NCc3cccc(OC(F)(F)F)c3)nn2)c(=O)c1)c1ccccc1 (stereo partly drawn) [Example 186, 1-(2-fluoro-4-{4-[(2R)-2-methoxy-2-phenylacetamido]-2-oxo-1,2-dihydropyridin-1-yl}butyl)-N-{[3-(trifluoromethoxy)phenyl]methyl}-1H-1,2,3-triazole-4-carboxamide] | < 100 nM | < 100 nM
8 | O=C(CN1CCCCC1)Nc1ccn(CCCCc2nnc(C(=O)NCc3cc(C(F)(F)F)ccn3)s2)c(=O)c1F [Example 467, 5-(4-{3-fluoro-2-oxo-4-[2-(piperidin-1-yl)acetamido]-1,2-dihydropyridin-1-yl}butyl)-N-{[4-(trifluoromethyl)pyridin-2-yl]methyl}-1,3,4-thiadiazole-2-carboxamide] | < 100 nM | 100 to 500 nM
9 | O=C(NCc1cc(C(F)(F)F)ccn1)c1cn(CC(F)CCn2ccc(COc3ccc(Cl)cc3)cc2=O)nn1 (centres unmarked) [Example 486, 1-{4-[4-(4-chlorophenoxymethyl)-2-oxo-1,2-dihydropyridin-1-yl]-2-fluorobutyl}-N-{[4-(trifluoromethyl)pyridin-2-yl]methyl}-1H-1,2,3-triazole-4-carboxamide] | < 100 nM | < 100 nM
10 | O=C(NCc1cc(C(F)(F)F)ccn1)c1cn(CC(F)CCn2ccc(COc3cccc(Cl)c3)cc2=O)nn1 (centres unmarked) [Example 481, 1-{4-[4-(3-chlorophenoxymethyl)-2-oxo-1,2-dihydropyridin-1-yl]-2-fluorobutyl}-N-{[4-(trifluoromethyl)pyridin-2-yl]methyl}-1H-1,2,3-triazole-4-carboxamide] | < 100 nM | 100 to 500 nM
11 | COC(=O)Nc1ccn(CCCCc2ccc(NC(=O)Cc3ccccc3)nn2)c(=O)n1 [Example 93, methyl N-(2-oxo-1-{4-[6-(2-phenylacetamido)pyridazin-3-yl]butyl}-1,2-dihydropyrimidin-4-yl)carbamate] | 100 to 500 nM | 500 to 5000 nM
12 | CC(NC(=O)c1cn(CCCCn2ccc(NC(=O)CC3CCCCC3)cc2=O)nn1)c1cccc(OC(F)(F)F)c1 (centres unmarked) [Example 193, 1-{4-[4-(2-cyclohexylacetamido)-2-oxo-1,2-dihydropyridin-1-yl]butyl}-N-{1-[3-(trifluoromethoxy)phenyl]ethyl}-1H-1,2,3-triazole-4-carboxamide] | 100 to 500 nM | 500 to 5000 nM
13 | O=C(Cc1ccccc1)Nc1ccn(CCCCn2cc(C(=O)NCc3cccc(OC(F)(F)F)c3)nn2)c(=O)c1F [Example 173, 1-{4-[3-fluoro-2-oxo-4-(2-phenylacetamido)-1,2-dihydropyridin-1-yl]butyl}-N-{[3-(trifluoromethoxy)phenyl]methyl}-1H-1,2,3-triazole-4-carboxamide] | < 100 nM | < 100 nM
14 | CC(OC(=O)Nc1ccn(CCC(F)Cn2cc(C(=O)NCc3cccc(OC(F)(F)F)c3)nn2)c(=O)n1)c1ccccc1 (centres unmarked) [Example 497, 1-phenylethyl N-(1-{3-fluoro-4-[4-({[3-(trifluoromethoxy)phenyl]methyl}carbamoyl)-1H-1,2,3-triazol-1-yl]butyl}-2-oxo-1,2-dihydropyrimidin-4-yl)carbamate] | < 100 nM | 100 to 500 nM
15 | O=C(Nc1ccn(CCC(F)Cn2cc(C(=O)NCc3ccccn3)nn2)c(=O)c1F)C(=O)N1CCCCC1 (centres unmarked) [Example 427, 1-(2-fluoro-4-{3-fluoro-2-oxo-4-[2-oxo-2-(piperidin-1-yl)acetamido]-1,2-dihydropyridin-1-yl}butyl)-N-(pyridin-2-ylmethyl)-1H-1,2,3-triazole-4-carboxamide] | 500 to 5000 nM | 500 to 5000 nM
16 | COCCOc1cccc(CC(=O)Nc2ccn(CCC(F)Cn3cc(C(=O)NCc4cccc(OC(F)(F)F)c4)nn3)c(=O)c2)c1 (centres unmarked) [Example 185, 1-[2-fluoro-4-(4-{2-[3-(2-methoxyethoxy)phenyl]acetamido}-2-oxo-1,2-dihydropyridin-1-yl)butyl]-N-{[3-(trifluoromethoxy)phenyl]methyl}-1H-1,2,3-triazole-4-carboxamide] | < 100 nM | 500 to 5000 nM
17 | O=C(NCc1ccc(C(F)(F)F)nc1)c1cn(CC(F)CCn2ccc(NC(=O)C3CCCC3)c(F)c2=O)nn1 (centres unmarked) [Example 370, 1-[4-(4-cyclopentaneamido-3-fluoro-2-oxo-1,2-dihydropyridin-1-yl)-2-fluorobutyl]-N-{[6-(trifluoromethyl)pyridin-3-yl]methyl}-1H-1,2,3-triazole-4-carboxamide] | 100 to 500 nM | 100 to 500 nM
18 | CC(=O)Nc1ccn(CCCCc2ccc(NC(=O)Cc3ccccc3)nn2)c(=O)n1 [Example 92, N-{6-[4-(4-acetamido-2-oxo-1,2-dihydropyrimidin-1-yl)butyl]pyridazin-3-yl}-2-phenylacetamide] | < 100 nM | 500 to 5000 nM
19 | CC(C)(C)OC(=O)Nc1ccn(CCC(F)Cn2cc(C(=O)NCc3cccc(OC(F)(F)F)c3)nn2)c(=O)c1 (centres unmarked) [Example 234, tert-butyl N-(1-{3-fluoro-4-[4-({[3-(trifluoromethoxy)phenyl]methyl]carbamoyl)-1H-1,2,3-triazol-1-yl]butyl}-2-oxo-1,2-dihydropyridin-4-yl)carbamate] | < 100 nM | 100 to 500 nM
20 | O=C(Nc1ccn(CCC(F)Cn2cc(C(=O)NCc3cccc(C(F)(F)F)c3)nn2)c(=O)c1F)C(=O)N1CCCCC1 (centres unmarked) [Example 421, 1-(2-fluoro-4-{3-fluoro-2-oxo-4-[2-oxo-2-(piperidin-1-yl)acetamido]-1,2-dihydropyridin-1-yl}butyl)-N-{[3-(trifluoromethyl)phenyl]methyl}-1H-1,2,3-triazole-4-carboxamide] | < 100 nM | < 100 nM
21 | Nc1ccn(CCC(F)Cn2cc(C(=O)NCc3cccc(OC(F)(F)F)c3)nn2)c(=O)c1F (centres unmarked) [Example 282, 1-[4-(4-amino-3-fluoro-2-oxo-1,2-dihydropyridin-1-yl)-2-fluorobutyl]-N-{[3-(trifluoromethoxy)phenyl]methyl}-1H-1,2,3-triazole-4-carboxamide] | 500 to 5000 nM | > 5000 nM
22 | O=C(Nc1ccn(CCC(F)Cn2cc(C(=O)NCc3cc(C(F)(F)F)ccn3)nn2)c(=O)n1)OCc1ccccc1F (centres unmarked) [Example 501, (2-fluorophenyl)methyl N-(1-{3-fluoro-4-[4-({[4-(trifluoromethyl)pyridin-2-yl]methyl}carbamoyl)-1H-1,2,3-triazol-1-yl]butyl}-2-oxo-1,2-dihydropyrimidin-4-yl)carbamate] | < 100 nM | 100 to 500 nM
